The text below walks through data of ChEMBL document CHEMBL1145498, “A systematic interaction map of validated kinase inhibitors with Ser/Thr kinases” (Proc Natl Acad Sci U S A, 2007).

For test [1], the target named is 5'-AMP-activated protein kinase catalytic subunit alpha-2 (Homo sapiens) (UniProt P54646).
The target of test [2] is Calcium/calmodulin-dependent protein kinase type 1D (Homo sapiens) (UniProt Q8IU85).
The target in test [3] is Calcium/calmodulin-dependent protein kinase type 1G (Homo sapiens) (UniProt Q96NX5).
Chain of Calcium/calmodulin-dependent protein kinase type 1G (Homo sapiens) (Q96NX5 whole entry): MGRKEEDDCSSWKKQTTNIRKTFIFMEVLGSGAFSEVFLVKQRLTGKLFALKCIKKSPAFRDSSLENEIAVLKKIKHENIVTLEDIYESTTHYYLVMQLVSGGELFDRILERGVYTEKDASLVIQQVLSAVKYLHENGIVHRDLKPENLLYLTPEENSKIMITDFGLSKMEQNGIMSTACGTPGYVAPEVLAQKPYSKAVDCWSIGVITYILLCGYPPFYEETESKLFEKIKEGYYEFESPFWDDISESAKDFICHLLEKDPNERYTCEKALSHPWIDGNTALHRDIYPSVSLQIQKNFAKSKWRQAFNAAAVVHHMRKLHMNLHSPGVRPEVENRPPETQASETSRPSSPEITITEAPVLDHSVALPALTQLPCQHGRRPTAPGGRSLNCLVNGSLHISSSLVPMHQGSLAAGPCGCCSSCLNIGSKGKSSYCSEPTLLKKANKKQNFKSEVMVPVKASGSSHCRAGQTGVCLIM
For test [4], the target named is Cyclin-dependent kinase 2 (Homo sapiens, UniProt P24941).
In test [5] the target is Dual specificity protein kinase CLK2 (Homo sapiens) (UniProt P49760).
Chain of Dual specificity protein kinase CLK2 (Homo sapiens) (P49760 whole entry, looked up): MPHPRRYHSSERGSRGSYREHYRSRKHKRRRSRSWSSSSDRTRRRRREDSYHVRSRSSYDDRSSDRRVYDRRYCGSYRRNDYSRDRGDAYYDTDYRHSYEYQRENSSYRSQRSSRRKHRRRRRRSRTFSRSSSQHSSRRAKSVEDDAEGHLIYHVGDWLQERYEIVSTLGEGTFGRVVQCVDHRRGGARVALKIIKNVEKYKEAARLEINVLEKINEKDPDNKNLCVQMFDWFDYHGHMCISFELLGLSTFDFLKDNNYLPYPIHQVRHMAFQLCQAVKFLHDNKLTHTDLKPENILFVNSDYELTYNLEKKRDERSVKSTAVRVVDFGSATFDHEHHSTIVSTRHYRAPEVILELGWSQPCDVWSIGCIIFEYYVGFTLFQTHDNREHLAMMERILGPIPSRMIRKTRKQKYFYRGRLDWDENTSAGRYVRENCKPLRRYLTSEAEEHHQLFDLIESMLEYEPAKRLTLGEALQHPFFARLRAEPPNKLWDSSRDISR
Test [6] concerns the target T1, Dual specificity mitogen-activated protein kinase kinase 6 (Homo sapiens) (UniProt P52564).
T1 sequence (whole entry): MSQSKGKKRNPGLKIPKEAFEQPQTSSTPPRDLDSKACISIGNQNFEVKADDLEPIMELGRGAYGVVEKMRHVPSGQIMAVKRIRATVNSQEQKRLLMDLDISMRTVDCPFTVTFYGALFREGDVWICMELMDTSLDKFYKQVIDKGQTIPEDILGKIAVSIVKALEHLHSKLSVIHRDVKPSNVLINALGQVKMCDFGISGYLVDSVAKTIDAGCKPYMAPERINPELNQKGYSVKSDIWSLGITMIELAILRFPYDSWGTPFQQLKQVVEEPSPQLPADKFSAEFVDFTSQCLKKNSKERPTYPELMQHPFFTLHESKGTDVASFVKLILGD

Test [7] concerns the target Serine/threonine-protein kinase 26 (Homo sapiens) (UniProt Q9P289).
The target in test [8] is T2, Serine/threonine-protein kinase Nek2 (Homo sapiens) (UniProt P51955).
T2 sequence (whole entry): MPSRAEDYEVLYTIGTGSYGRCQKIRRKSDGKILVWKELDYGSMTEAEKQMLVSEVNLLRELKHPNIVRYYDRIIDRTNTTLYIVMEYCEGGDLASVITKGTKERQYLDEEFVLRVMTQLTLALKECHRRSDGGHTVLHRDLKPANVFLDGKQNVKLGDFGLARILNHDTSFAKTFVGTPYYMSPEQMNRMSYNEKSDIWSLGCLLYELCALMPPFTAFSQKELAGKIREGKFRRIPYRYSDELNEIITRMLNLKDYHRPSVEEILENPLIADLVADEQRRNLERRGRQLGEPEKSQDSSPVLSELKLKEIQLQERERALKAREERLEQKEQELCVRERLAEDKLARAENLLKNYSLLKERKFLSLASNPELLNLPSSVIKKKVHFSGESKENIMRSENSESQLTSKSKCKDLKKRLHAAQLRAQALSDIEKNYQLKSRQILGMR

Test [9] deals with Serine/threonine-protein kinase OSR1 (Homo sapiens) (UniProt O95747).
Chain of Serine/threonine-protein kinase OSR1 (Homo sapiens) (O95747 2-527 limits assumed): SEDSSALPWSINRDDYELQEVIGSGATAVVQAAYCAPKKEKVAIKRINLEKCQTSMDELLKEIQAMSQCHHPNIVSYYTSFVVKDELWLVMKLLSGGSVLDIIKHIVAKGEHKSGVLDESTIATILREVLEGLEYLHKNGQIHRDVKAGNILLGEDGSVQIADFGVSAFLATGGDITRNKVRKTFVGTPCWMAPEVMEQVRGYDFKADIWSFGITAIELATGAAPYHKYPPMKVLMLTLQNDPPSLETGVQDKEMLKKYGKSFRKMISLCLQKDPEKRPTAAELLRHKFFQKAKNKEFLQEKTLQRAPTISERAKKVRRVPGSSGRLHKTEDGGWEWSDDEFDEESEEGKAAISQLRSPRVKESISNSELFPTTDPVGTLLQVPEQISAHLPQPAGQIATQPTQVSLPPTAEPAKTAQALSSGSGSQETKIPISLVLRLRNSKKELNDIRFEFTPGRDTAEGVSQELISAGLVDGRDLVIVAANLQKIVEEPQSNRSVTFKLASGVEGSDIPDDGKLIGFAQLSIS
Test [10] deals with Serine/threonine-protein kinase PAK 5 (Homo sapiens) (UniProt Q9P286).
Chain of Serine/threonine-protein kinase PAK 5 (Homo sapiens) (Q9P286 whole entry, looked up): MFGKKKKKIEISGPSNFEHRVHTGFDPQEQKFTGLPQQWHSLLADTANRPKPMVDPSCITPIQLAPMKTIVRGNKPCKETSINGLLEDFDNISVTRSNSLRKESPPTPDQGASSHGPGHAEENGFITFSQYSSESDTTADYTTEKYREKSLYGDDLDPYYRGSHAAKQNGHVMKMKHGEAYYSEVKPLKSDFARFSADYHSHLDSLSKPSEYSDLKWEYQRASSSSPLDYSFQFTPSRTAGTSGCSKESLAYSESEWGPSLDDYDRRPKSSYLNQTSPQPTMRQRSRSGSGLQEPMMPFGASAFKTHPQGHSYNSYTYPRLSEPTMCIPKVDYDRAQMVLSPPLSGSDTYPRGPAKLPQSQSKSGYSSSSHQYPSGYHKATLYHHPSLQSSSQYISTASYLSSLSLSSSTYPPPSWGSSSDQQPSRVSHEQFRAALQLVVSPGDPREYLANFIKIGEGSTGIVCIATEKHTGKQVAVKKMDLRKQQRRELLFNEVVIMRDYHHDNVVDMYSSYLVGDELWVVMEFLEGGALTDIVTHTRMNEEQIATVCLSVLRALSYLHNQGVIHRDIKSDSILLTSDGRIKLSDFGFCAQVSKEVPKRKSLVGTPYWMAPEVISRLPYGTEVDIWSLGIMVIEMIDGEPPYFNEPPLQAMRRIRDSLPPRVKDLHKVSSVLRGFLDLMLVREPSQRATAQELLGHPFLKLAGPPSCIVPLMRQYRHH
Test [11] has as its target T3, Serine/threonine-protein kinase PLK4 (Homo sapiens) (UniProt O00444).
T3 sequence (whole entry): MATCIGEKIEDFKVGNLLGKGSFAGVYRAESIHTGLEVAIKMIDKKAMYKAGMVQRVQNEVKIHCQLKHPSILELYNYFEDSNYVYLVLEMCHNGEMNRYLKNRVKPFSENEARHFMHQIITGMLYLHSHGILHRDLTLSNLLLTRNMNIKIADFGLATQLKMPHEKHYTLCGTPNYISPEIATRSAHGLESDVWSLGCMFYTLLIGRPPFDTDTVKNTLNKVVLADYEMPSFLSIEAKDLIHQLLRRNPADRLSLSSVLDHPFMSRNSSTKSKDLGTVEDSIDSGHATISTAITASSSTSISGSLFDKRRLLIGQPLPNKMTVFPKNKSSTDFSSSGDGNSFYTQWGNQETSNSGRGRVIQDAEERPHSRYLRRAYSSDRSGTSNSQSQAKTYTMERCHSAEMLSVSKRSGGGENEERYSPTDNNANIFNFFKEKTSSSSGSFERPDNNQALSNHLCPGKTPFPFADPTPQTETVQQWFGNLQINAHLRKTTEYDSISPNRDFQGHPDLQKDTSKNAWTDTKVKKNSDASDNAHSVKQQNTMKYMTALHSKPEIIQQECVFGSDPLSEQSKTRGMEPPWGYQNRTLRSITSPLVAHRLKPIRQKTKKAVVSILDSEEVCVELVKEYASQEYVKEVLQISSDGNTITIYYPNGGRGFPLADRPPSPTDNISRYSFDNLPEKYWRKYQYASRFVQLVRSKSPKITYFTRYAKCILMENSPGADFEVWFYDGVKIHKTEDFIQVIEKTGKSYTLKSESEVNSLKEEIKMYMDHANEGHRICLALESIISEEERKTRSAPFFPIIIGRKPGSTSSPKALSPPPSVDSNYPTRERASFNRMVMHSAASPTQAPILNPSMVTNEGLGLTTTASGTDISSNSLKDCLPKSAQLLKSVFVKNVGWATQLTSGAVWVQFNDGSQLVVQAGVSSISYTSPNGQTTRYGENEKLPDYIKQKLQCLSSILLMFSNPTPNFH

Test [12] addresses Serine/threonine-protein kinase RIO2 (Homo sapiens) (UniProt Q9BVS4).
Test [13] concerns the target Serine/threonine-protein kinase 16 (Homo sapiens) (UniProt O75716).
Test [14] addresses T4, Serine/threonine-protein kinase VRK3 (Homo sapiens) (UniProt Q8IV63).
T4 sequence (whole entry): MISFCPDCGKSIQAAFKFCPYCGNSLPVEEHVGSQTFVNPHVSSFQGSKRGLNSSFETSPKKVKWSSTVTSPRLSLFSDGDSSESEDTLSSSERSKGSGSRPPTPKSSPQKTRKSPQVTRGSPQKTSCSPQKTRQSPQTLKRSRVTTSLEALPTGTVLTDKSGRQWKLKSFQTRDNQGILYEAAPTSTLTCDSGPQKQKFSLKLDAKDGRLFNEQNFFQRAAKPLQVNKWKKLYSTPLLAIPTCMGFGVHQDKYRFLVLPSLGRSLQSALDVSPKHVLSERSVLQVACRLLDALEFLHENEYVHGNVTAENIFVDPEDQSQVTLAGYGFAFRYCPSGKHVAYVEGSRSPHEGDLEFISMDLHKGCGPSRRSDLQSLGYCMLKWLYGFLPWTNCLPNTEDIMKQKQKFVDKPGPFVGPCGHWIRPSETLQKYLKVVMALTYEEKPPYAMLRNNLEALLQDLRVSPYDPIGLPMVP

Test [15] addresses Serine/threonine-protein kinase 25 (Homo sapiens) (UniProt O00506).

Chain of Serine/threonine-protein kinase 25 (Homo sapiens) (O00506 whole entry, looked up): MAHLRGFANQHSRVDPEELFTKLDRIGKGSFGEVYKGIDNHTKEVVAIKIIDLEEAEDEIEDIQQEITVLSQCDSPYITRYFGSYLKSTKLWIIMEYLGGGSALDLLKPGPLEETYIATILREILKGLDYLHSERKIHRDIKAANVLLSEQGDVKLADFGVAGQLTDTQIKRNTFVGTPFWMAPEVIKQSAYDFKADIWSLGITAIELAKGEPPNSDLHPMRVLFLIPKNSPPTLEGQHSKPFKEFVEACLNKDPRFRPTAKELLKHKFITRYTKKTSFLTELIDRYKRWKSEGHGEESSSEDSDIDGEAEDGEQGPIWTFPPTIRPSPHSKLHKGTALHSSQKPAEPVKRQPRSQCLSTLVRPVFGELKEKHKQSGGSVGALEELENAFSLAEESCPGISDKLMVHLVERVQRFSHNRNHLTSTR
Chain of Calcium/calmodulin-dependent protein kinase type 1D (Homo sapiens) (Q8IU85 whole entry, looked up): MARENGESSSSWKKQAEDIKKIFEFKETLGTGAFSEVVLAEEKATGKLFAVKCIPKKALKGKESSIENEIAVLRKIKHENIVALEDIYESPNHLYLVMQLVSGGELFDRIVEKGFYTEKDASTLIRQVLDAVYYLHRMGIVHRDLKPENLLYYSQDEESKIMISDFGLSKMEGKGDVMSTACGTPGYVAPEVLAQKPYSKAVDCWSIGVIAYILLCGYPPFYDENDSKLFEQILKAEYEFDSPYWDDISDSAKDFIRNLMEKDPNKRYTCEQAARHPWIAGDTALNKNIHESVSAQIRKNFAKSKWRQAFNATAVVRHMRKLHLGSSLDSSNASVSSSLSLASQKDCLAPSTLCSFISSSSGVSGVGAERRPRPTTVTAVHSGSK
Chain of 5'-AMP-activated protein kinase catalytic subunit alpha-2 (Homo sapiens) (P54646 whole entry, looked up): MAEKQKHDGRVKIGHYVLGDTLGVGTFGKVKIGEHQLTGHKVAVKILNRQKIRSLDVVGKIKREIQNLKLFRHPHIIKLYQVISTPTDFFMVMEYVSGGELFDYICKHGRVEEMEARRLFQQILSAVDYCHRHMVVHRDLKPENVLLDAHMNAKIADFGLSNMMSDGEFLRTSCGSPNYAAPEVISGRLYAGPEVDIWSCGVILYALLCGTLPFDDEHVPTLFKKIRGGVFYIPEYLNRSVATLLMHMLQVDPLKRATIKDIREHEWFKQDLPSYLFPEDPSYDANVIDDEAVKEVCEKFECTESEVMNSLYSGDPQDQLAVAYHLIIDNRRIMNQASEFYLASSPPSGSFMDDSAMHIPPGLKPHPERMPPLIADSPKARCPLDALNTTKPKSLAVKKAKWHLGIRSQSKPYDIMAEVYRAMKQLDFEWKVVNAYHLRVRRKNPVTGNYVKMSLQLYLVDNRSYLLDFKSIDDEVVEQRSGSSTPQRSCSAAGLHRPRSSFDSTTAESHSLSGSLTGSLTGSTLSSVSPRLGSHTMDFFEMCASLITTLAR
Chain of Serine/threonine-protein kinase RIO2 (Homo sapiens) (Q9BVS4 whole entry, looked up): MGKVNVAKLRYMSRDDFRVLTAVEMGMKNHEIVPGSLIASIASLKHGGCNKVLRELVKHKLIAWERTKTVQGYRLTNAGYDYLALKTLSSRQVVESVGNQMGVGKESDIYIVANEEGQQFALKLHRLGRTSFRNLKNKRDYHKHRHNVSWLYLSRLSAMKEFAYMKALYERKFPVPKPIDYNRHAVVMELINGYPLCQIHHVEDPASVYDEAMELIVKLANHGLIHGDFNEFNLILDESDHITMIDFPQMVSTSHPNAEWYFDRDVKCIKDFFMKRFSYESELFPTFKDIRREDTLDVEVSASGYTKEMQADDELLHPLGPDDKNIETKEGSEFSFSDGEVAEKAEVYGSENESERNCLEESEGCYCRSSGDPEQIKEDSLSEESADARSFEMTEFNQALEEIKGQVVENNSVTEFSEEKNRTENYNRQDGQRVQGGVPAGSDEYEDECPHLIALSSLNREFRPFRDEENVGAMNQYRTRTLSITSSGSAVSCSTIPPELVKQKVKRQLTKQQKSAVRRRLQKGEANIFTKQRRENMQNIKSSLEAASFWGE
Chain of Serine/threonine-protein kinase 16 (Homo sapiens) (O75716 whole entry): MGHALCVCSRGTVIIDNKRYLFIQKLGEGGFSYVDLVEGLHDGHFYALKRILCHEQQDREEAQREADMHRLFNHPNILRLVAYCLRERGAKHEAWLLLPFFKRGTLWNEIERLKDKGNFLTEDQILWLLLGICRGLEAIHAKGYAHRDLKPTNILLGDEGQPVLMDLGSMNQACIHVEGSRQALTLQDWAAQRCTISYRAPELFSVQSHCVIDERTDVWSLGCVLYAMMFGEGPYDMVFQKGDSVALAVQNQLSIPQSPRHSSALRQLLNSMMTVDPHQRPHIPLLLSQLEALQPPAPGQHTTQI
Chain of Serine/threonine-protein kinase 26 (Homo sapiens) (Q9P289 2-416 limits assumed): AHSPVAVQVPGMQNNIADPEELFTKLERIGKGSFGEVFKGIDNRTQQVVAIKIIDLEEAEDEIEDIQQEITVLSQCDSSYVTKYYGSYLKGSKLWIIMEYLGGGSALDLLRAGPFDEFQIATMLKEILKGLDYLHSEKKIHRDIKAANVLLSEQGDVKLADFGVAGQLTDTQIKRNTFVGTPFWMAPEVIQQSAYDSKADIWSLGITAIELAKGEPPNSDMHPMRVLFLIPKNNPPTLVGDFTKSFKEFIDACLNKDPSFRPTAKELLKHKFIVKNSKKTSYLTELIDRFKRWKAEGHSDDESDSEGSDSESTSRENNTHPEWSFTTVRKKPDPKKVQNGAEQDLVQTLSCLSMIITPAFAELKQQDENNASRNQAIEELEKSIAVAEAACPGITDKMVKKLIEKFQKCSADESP

Regarding `O=C1c2ccccc2-c2n[nH]c3cccc1c23`, the ΔTm in test [1] worked out at 2.1 °C; in [2], 2.1 °C; in test [3], 2 °C; in test [4] it was 2.6 °C; in [5] it was 3 °C; in [6], 4.7 °C. For the same compound, the ΔTm in test [7] came to 2.1 °C; in test [8], 2.3 °C; in [9], 3.2 °C; in test [10], 1.1 °C; in test [11] it was 6.3 °C; in test [12], 2.2 °C. Moreover, the ΔTm in [13] came to 6.9 °C; in [14] it was 0.1 °C; in test [15], 4.8 °C.

Usually ΔTm stands for the change in melting temperature against a reference sample.
